Structures can show the parent of a compound that is named as a salt. Where two headings read alike, the source gives them in different places.
Legend:
[1] = system: epithelial carcinoma A431 cell line; assay: MTT Cell Proliferation Assay, A431 cells; type: cell-based; conditions: for MTT Assay IC50(A431/MDBK): A431: A431 cells; for MTT assay, % at 2.6 microMolar: cell line not stated
Description: The following example describes the MTT Cell Proliferation Assay.
The MTT Cell Proliferation Assay is a colorimetric assay system that measures the reduction of the tetrazolium salt MTT (3-(4,5-dimethylthiazol-2-yl)-2,5-diphenyltetrazolium bromide) into insoluble formazan crystals, produced by the mitochondria of viable cells. […] The color can then be quantified by spectrophotometric means. Among the applications for the method are drug sensitivity, cytotoxicity, response to growth factors, and cell activation. The reduction of tetrazolium salts is now recognized as a safe, accurate alternative to radiometric testing.
Two replicates on each cell plate and 2 duplicate plates gave 4 individual replicates of each concentration, in each cell line. Concentrations were diluted in 100% DMSO from 25 mM stocks.
Twelve 96 well plates of each cell line were plated. Plating was done by dislodging cells as in passage protocol, counting on a hemocytometer, re-suspending in standard growth media, and plating using a multichannel pippetor.
16 μl of 25 mM stock+34 μl DMSO=8 mM starting concentrations, and serial diluted as with test compounds in same plate. […] Two replicates of each concentrations was run on each cell plate. All compound addition and cell treatments were done using aseptic technique under a laminar flow aseptic hood.
Control: 0.5% DMSO in treatment media was used as the control.
MTT dye (Thiazolyl Blue Tetrazolium Bromide, Sigma cat #M5655) stock was prepared in bulk and stored at 4° C. for use: 5 mgs/ml sterile PDS, shielded from light. 4 ul of this stock per 100 uls treatment media per well was used.
Plates were incubated overnight prior to treatment, with treatment day=Day 0. Compound treatments were prepared prior to washing cells to minimize time cells were dry at room temperature after final aspiration. Compounds were diluted in 100% DMSO in 96 well polypropylene plates: 40 μl 25 mM stock+10 μl DMSO=20 mM; 20 μl of 20 mM+30 μl DMSO=8 mM; 20 μl of 8 mM+30 μl DMSO=3.2 mM; 20 μl of 3.2 mM+30 μl DMSO=1.3 mM; 20 μl of 1.3 mM+30 μl DMSO=0.51 mM.
5.0 μl/ml were added to treatment media, in sterile, 2.2 ml deep well plates=0.5% dmso final. Ten μl of each dmso concentration was added to 2.0 ml of treatment media and then mixed using a 1200 μl multichannel pipettor. Cell plates were treated from the deep well plates. Treatment media was standard growth media containing 0.5% FBS and standard additions. This reduced FBS concentration allowed for a slower growth rate in cells.
Media was aspirated from cell plates, and washed with 200 μl/well sterile PBS. Aspirated PBS wash, and cell plates were treated with 200 μl of compound/treatment media per well, and incubated at 37° C., 5% CO2 for 3 days.
Prior to harvesting, visual observations were made under an inverted microscope. Plates were harvested by: aspirating the growth media; adding back MTT dye/100 μl treatment media; and incubating plates at 37° C. for 1 hour. MTT dye was aspirated. 100 μl/well dmso was added, and then shaken on a Bellco plate shaker for 5 minutes, at 4.5 setting.
Plates were read in a Tecan Sunrize UV plate reader, at 560 nm. Settings: Read mode, Outside Normal 2 sec; Shake settle time 3 sec. Data is reported as % inhibition, calculated for individual plates using control values from that plate.

[2] = target: T1, EGFR (Homo sapiens, UniProt P00533); assay: EGFR in-cell Western (ICW) screening protocol (EGFR inhibition assay); type: cell-based; set-up: ICW 1 / ICW 2 / ICW Avg: unit not given here; conditions: for ICW Avg / ICW 1 / ICW 2: ICW assay; for ICW Avg: average of runs 1 and 2; for ICW 1: run 1; for ICW 2: run 2; for ICW assay: Table 10, % Inhibition of EGF dependent EGFR phosphorylation in A431 cells, compound 125 μM in assay
T1 construct: host or cells: A431
Method: The following example describes general EGFR in-cell Western (ICW) screening protocol. Methods are according to Chen et al. (2005) Analytical Biochemistry 338, 136-142 (incorporated herein by reference), except as otherwise noted.
Cell Plates: A431 cells (ATCC # CRL-1555) were grown in Dulbecco's Modified Eagle Medium (DMEM; ATCC #30-2002) supplemented with 10% fetal bovine serum, 105 units/ml pen/strep (Invitrogen #15140155) and 2.1 mM L-glutamine (ATCC #30-2214). Cells were seeded into 96 well tissue culture plates (BD Falcon #353948) at a density of 30,000 cells per well and incubated at 37° C. with 5% CO2 overnight. Two cell plates were prepared for each compound plate.
Serum Starvation: The cells were serum starved prior to compound addition. The media was removed by aspiration and the cells washed with PBS (200 μl/well; Invitrogen #20012-027). The PBS was removed by aspiration and replaced with 200 μl of DMEM (ATCC #30-2002) supplemented with 105 units/ml pen/strep (Invitrogen #15140155) and 2.1 mM 1-glutamine (ATCC #30-2214). The cell plates were incubated at 37° C./5% CO2 for 2 hours.
Compound Plate Preparation: The test compounds were solvated in 100% DMSO (Sigma #472301-2L) at a concentration of 25 mM. Compounds found not to be completely soluble in 100% DMSO at 25 mM were diluted to 10 mM with 100% DMSO and TFA (Fluka #91699) added to a final concentration of 0.2%. 40 μl of test compound was added to the appropriate well of a 96 well plate (Falcon #351190). As controls, 6 μM EGFR kinase inhibitor PD168393 (EMD/Calbiochem #513033) in 100% DMSO and DMSO alone were added to various wells. Prepared compound plates were stored at RT prior to use and at 4° C. long term.
Compound Dilution Plate Preparation: 250 μl of DMEM supplemented with 1 mg/ml BSA (Sigma A3059-10G) was added to the appropriate wells of a 96 well plate to prepare the compound dilution plates. Using a multichannel pipettor, 1.25 μl of compound from the compound plate was transferred into the compound dilution plate.
Compound Addition: The starve media was removed from the cell plates by aspiration. Using a multichannel pipettor, the compound dilution plates were mixed by pipetting up and down three times. 50 μl of mixed, diluted compound was added to each of two rows/columns on each of two cell plates. The cell plates with compound were incubated at 37° C./5% CO2 for 4 hours.
EGF Addition: 20 ng/ml EGF (Upstate #01-107) was prepared in DMEM supplemented with 1 mg/ml BSA. 50 μl of 20 or 0 ng/ml EGF was added to the appropriate wells without the removal of compound. The compound and EGF were mixed by pipetting up and down three times. The plates were incubated at 37° C./5% CO2 for 10 min. In some screening assays the final concentration of EGF used for simulation was 6.6, or 12.5 ng/ml rather than 10 ng/ml.
Fixation and Triton Washing: The EGF+compound was removed by aspiration and 150 μl of freshly prepared Fixation Solution (1×PBS, Sigma P3813-10PK, and 4% Formaldehyde, Pierce #28908) was immediately added. The plates were incubated at RT for 20 min without shaking. The Fixation Solution was removed by aspiration and the plates washed four times with 200 μl each of Triton Wash Solution (1×PBS, Sigma P3813-10PK, and 0.1% Triton X-100, T8787-50ML) for 5 min with gentle shaking.
Blocking and Probing: Following the last Triton Wash, the plates were blocked for 1.5 h at RT with shaking using 150 μl of Odyssey Blocking Buffer (LI-COR #927-40000). The block was removed by aspiration and 50 μl of diluted primary Ab mix was added. The plates were incubated at 4° C. overnight with gentle shaking. The plates were washed five times with 200 μl of PBST (1×PBS, Sigma P3813-10PK, and 0.1% Tween-20, Sigma P9416-50ML) for 5 min each with shaking 50 μl of diluted secondary Ab mix was added and the plates incubated at RT for 1 h with shaking. The plates were washed 5× with 200 μl of PBST for 5 min each with shaking. […]

[3] = first value of 'a/b (c)', taken as A431 cells

T1 sequence (P00533 25-1210): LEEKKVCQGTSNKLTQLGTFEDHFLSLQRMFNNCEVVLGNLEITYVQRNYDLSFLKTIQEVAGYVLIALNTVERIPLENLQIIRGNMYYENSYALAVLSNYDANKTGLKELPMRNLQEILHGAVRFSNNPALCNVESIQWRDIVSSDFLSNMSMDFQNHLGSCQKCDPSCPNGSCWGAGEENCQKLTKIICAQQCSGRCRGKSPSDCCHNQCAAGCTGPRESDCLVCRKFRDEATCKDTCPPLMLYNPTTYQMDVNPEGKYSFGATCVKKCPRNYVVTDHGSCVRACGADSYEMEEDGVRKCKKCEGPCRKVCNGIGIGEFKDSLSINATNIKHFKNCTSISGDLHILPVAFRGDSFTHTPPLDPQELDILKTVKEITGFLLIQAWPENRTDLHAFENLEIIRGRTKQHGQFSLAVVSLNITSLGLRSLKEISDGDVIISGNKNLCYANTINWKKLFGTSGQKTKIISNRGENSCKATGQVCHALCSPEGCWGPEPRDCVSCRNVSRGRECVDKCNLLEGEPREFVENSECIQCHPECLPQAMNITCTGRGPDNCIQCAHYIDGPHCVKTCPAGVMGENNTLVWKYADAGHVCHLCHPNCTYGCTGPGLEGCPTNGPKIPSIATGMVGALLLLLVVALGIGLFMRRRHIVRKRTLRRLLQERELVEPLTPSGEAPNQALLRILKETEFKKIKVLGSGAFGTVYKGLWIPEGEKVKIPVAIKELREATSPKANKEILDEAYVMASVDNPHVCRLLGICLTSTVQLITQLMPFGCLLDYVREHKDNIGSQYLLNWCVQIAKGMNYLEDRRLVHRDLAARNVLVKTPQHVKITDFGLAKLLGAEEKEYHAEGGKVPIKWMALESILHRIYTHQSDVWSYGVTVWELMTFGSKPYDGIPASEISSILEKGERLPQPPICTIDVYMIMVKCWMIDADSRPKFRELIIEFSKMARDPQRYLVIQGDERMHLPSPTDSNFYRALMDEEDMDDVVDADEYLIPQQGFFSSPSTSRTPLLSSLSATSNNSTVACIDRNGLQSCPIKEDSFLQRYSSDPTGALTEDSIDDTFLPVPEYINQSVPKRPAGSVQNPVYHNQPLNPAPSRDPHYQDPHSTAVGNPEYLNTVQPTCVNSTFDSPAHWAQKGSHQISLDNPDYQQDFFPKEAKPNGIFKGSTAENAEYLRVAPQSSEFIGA

Row | Compound | MTT Assay IC50(A431/MDBK): A431 ([1]; first value of cell) | ICW Avg [2] | ICW 1 [2] | ICW 2 [2] | ICW Screen (ICW Inhibition) [2] | other results
1 | COc1ccc(C2CC(=O)c3cnc(Nc4nc(-c5ccccc5)c5ccccc5n4)nc3C2)cc1 (centres unmarked) [11663 + TFA] | non-convergent | 26.73 | 31.73 | 21.73 | – | –
2 | Cc1ccc(C2CC(=O)c3cnc(Nc4nc(C)c5cccc(C)c5n4)nc3C2)cc1 (centres unmarked) [11673 + TFA] | non-convergent | 25.35 | 33.30 | 17.39 | – | –
3 | Cc1ccc2c(C)nc(Nc3nc(C)cc(=O)[nH]3)nc2c1 [11725 + TFA] | – | 28.93 | 26.65 | 31.20 | – | IC50 ([1]; Homo sapiens, A-431, A431 cells, first value of cell, read-out: MTT Assay IC50(A431/MDBK): A431): 13 µM
4 | Cc1cc(C)c2nc(Nc3nc(CSc4ccc(Cl)cc4)cc(=O)[nH]3)nc(C)c2c1 [11726 + TFA] | NOT ACTIVE | 30.87 | 35.72 | 26.02 | – | –
5 | CCOc1cccc2c(C)nc(Nc3nc(C)c(Cc4ccc(C)cc4)c(=O)[nH]3)nc12 [11753 + TFA] | NOT ACTIVE | 44.86 | 42.44 | 47.28 | – | –
6 | CC(C)C(=O)NC(=S)Nc1ccc(S(=O)(=O)N2CCCC2)cc1 [AD4-11970] | – | – | – | – | 43.246 | MTT Screen, first value of cell [1, 3]: non- conver- gent
7 | CC(C)C(=O)NC(=S)Nc1ccc(S(=O)(=O)N(C)c2ccccc2)cc1 [AD4-12042] | – | – | – | – | 34.592 | MTT Screen, first value of cell [1, 3]: non- conver- gent
8 | COC(=O)CCC(=O)NC(=S)Nc1ccc(S(=O)(=O)Nc2cc(C)cc(C)c2)cc1 [AD4-12093] | – | – | – | – | 29.436 | MTT Screen, first value of cell [1, 3]: non- conver- gent
9 | CN(c1ccccc1)S(=O)(=O)c1ccc(NC(=S)NC(=O)C2CC2)cc1 [AD4-12164] | – | – | – | – | 45.64 | IC50 ([1]; Homo sapiens, A-431, first value of 'a/b (c)', taken as A431 cells, read-out: MTT Screen, first value of cell): 50.6 µM; IC50 ([1]; first value of 'a/b (c)', taken as A431 cells, read-out: MTT Screen, first value of cell): 51.4 µM
10 | O=S(=O)(c1ccc(NC(=S)Nc2cccc(C(F)(F)F)c2)cc1)N1CCc2ccccc21 [AD4-12239] | – | – | – | – | – | MTT assay, % at 2.6 microMolar ([1]; Table 10): 58%; ICW assay [2]: 67.8291
11 | CCCC(=O)NC(=S)Nc1ccc(S(=O)(=O)Nc2cc(C)on2)cc1 [AD4-12267] | – | – | – | – | 30.36 | MTT Screen, first value of cell [1, 3]: non- conver- gent
12 | CN(c1ccccc1)S(=O)(=O)c1ccc(NC(=S)NC(=O)/C=C/c2cccs2)cc1 [AD4-12288] | – | – | – | – | 35.584 | MTT Screen, first value of cell [1, 3]: non- conver- gent
13 | Cc1cc(C)c2nc(NC3=NC(c4ccccc4)CC(=O)N3)nc(C)c2c1 (centres unmarked) [AD4-12641 + TFA] | NOT ACTIVE | 72.20 | 70.26 | 74.15 | – | –
14 | CCCc1cc(=O)[nH]c(Nc2nc(C)c3ccc(OC)cc3n2)n1 [AD4-12652 + TFA] | NOT ACTIVE | 73.45 | 82.35 | 64.55 | – | –
15 | Cc1ccc(C)c(NC(=S)Nc2ccc(S(=O)(=O)N3c4ccc(F)cc4CCC3C)cc2)c1 (centres unmarked) [AD4-12824] | – | – | – | – | – | MTT assay (first value) ([1]; Table 10, first of x/y(ratio): A431, three day treatment, unit not printed (doses in μM)): Not Active; ICW assay [2]: 25.9501
16 | CC1CCc2cc(F)ccc2N1S(=O)(=O)c1ccc(NC(=S)Nc2cc(Cl)cc(Cl)c2)cc1 (centres unmarked) [AD4-12843] | – | – | – | – | – | MTT assay, % at 2.6 microMolar ([1]; Table 10): 74%; ICW assay [2]: 43.3347
17 | CC1CCc2cc(F)ccc2N1S(=O)(=O)c1ccc(NC(=S)Nc2cccc(C(F)(F)F)c2)cc1 (centres unmarked) [AD4-12846] | – | – | – | – | – | MTT assay, % at 2.6 microMolar ([1]; Table 10): 71%; ICW assay [2]: 71.4924
18 | CCOc1cccc2c(C)nc(Nc3nc(-c4ccccc4)cc(=O)[nH]3)nc12 [compound 11492] | non-convergent | 62.29 | 53.35 | 71.23 | – | –

From patent publication US20140179681A1, “METHODS AND COMPOSITIONS OF TARGETED DRUG DEVELOPMENT” (priority 2010, published 2014)
